In patent publication US3966728A, “Benzoguanamine derivatives” (Nippon Shinyaku Co., Ltd., priority 1974, dated 1976):

Experiments:
Ulcer (Shay rat) = assay: Anti-ulcerative activity (Shay rat); type: in vivo; details: ip, read-out: % Inhibition of Ulcer Index; for inhibition in vivo at 10 mg/kg: 10 mg/Kg i.p.; for inhibition in vivo at 20 mg/kg: 20 mg/Kg i.p.
Source text: (§1) Data of the anti-ulcerative activity (Shay rat) and the acute toxicity (mouse) obtained with respect to several typical instances of compounds included in the scope of this invention are shown in Table 1.

Acute toxicity (mouse) = details: in vivo, ip
Source text: as §1

## Nc1nc(N)nc(-c2cc(Cl)ccc2Cl)n1 [Example 1]
Ulcer (Shay rat)
  inhibition in vivo at 10 mg/kg: 49%
  inhibition in vivo at 20 mg/kg: 100%
Acute toxicity (mouse)
  LD50: ~1600 mg/kg

## Nc1nc(N)nc(-c2cc(Cl)ccc2F)n1 [Example 2]
Ulcer (Shay rat)
  inhibition in vivo at 20 mg/kg: 89%

## Nc1nc(N)nc(-c2cc(Cl)ccc2Br)n1 [Example 3]
Ulcer (Shay rat)
  inhibition in vivo at 10 mg/kg: 33%
  inhibition in vivo at 20 mg/kg: 80%
Acute toxicity (mouse)
  LD50: ~1000 mg/kg

## Nc1nc(N)nc(-c2cc(F)ccc2Br)n1 [Example 4]
Ulcer (Shay rat)
  inhibition in vivo at 20 mg/kg: 78%
Acute toxicity (mouse)
  LD50: ~500 mg/kg

## Nc1nc(N)nc(-c2cc(Br)ccc2Br)n1 [Example 5]
Ulcer (Shay rat)
  inhibition in vivo at 20 mg/kg: 100%
Acute toxicity (mouse)
  LD50: ~850 mg/kg

## Nc1nc(N)nc(-c2cc(Br)ccc2Cl)n1 [Example 6]
Ulcer (Shay rat)
  inhibition in vivo at 10 mg/kg: 35%
  inhibition in vivo at 20 mg/kg: 86%
Acute toxicity (mouse)
  LD50: > 1000 mg/kg

## Nc1nc(N)nc(-c2ccc(Cl)cc2Cl)n1 [Example 7]
Ulcer (Shay rat)
  inhibition in vivo at 10 mg/kg: 77%
  inhibition in vivo at 20 mg/kg: 100%
Acute toxicity (mouse)
  LD50: ~300 mg/kg

## Nc1nc(N)nc(-c2ccc(Cl)cc2Br)n1 [Example 8]
Ulcer (Shay rat)
  inhibition in vivo at 10 mg/kg: 76%
  inhibition in vivo at 20 mg/kg: 96%

## Nc1nc(N)nc(-c2cccc(Cl)c2Cl)n1 [Example 10]
Ulcer (Shay rat)
  inhibition in vivo at 20 mg/kg: 76%

## Nc1nc(N)nc(-c2c(Cl)cccc2Cl)n1 [Example 11]
Ulcer (Shay rat)
  inhibition in vivo at 20 mg/kg: 54%

## Nc1nc(N)nc(-c2cc(Cl)cc(Cl)c2)n1 [Example 12]
Ulcer (Shay rat)
  inhibition in vivo at 20 mg/kg: 80%
